These results are taken from patent US10077243B2, “Compounds for treating disorders mediated by metabotropic glutamate receptor 5, and methods of use thereof” (Sunovion Pharmaceuticals Inc., priority 2009, dated 2018).

As a reminder, the EC50 is the concentration that produces a half-maximal response.

The target of one test is T1, human mGluR5 (Homo sapiens, UniProt P41594).
T1 construct: expressed in transfected cells; host or cells: HEK293 cells stably expressing rat GLAST (EAAT1), stably transfected with pcDNAzeo3.1 carrying synthetic human mGluR5 DNA; zeocin-selected single clones
T1 sequence (P41594 21-1212): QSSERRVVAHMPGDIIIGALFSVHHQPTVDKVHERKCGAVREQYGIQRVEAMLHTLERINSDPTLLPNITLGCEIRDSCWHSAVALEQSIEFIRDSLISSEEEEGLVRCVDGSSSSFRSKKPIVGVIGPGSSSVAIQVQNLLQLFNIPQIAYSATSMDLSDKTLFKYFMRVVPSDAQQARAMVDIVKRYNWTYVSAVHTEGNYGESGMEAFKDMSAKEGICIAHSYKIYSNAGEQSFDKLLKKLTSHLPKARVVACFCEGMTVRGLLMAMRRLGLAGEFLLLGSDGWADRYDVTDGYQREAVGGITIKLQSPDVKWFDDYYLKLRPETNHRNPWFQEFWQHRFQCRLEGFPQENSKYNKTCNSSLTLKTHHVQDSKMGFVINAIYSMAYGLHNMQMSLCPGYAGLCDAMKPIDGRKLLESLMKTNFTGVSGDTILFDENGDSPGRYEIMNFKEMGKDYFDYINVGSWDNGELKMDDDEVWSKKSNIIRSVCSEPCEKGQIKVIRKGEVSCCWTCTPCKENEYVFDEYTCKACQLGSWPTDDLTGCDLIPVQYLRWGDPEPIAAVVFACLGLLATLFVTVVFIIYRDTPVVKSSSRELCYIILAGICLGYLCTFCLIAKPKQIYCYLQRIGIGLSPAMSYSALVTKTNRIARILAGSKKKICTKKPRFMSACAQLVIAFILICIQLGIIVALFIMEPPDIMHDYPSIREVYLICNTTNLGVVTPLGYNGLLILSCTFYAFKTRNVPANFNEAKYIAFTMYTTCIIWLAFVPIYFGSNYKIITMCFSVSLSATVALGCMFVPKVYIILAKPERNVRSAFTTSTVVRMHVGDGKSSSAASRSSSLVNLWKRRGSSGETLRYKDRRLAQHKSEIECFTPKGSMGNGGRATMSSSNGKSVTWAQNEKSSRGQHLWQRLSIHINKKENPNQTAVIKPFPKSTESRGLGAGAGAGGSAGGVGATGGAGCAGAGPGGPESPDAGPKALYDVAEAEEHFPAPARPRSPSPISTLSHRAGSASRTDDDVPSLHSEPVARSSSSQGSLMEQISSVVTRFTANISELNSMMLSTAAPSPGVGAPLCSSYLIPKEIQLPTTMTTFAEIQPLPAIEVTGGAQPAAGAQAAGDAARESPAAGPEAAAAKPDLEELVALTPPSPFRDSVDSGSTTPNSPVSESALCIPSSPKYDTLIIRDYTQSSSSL
Kind of test: In vitro cell-based FLIPR calcium assay for positive modulation of the activation of mGluR5 by glutamate (PAM EC50). Conditions: HEK293/GLAST cells expressing recombinant human mGluR5; FLIPR calcium signal; glutamate added at its EC20; read-out: mGluR5 PAM EC50. An outline of the steps: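 HEK293/GLAST cells stably expressing mGluR5 were loaded with calcium-sensitive dye (25 °C, 45–60 min) in HBSS/20 mM HEPES. Test compounds were assayed in buffer containing glutamate at that day's EC20, with FLIPR fluorescence recorded. Controls contained 0.3% DMSO without compound.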
Regarding `N#CC1CCc2nc3cc(C#Cc4ccccn4)ccc3c(=O)n2CC1` (stereo not drawn) [Example 6.39, 12-oxo-3-(pyridin-2-ylethynyl)-6,7,8,9,10,12-hexahydroazepino[2,1-b]quinazoline-8-carbonitrile], the EC50 was in the range of 100 to 300 nM.

As to `CC1CCCc2nc3cc(C#Cc4ccccn4)ccc3c(=O)n2C1` (stereo not drawn) [Example 6.42, 9-methyl-3-(pyridin-2-ylethynyl)-7,8,9,10-tetrahydroazepino[2,1-b]quinazolin-12(6H)-one], the EC50 is less than 10 nM.

`CC1(C)CCCc2nc3cc(C#Cc4ccccn4)ccc3c(=O)n2C1` [Example 6.43, 9,9-dimethyl-3-(pyridin-2-ylethynyl)-7,8,9,10-tetrahydroazepino[2,1-b]quinazolin-12(6H)-one]: the EC50 was 10 to 30 nM.

`CC1CCCCc2nc3cc(C#Cc4ccccn4)ccc3c(=O)n21` (stereo not drawn) [Example 6.44, 10-methyl-3-(pyridin-2-ylethynyl)-7,8,9,10-tetrahydroazepino[2,1-b]quinazolin-12(6H)-one]: the EC50 was less than 10 nM.

Consider `N#Cc1cccc(C#Cc2ccc3c(=O)n4c(nc3c2)CCCCC4)n1` [Example 6.45], for which the EC50 is 10 to 30 nM.

As for `O=c1c2ccc(C#Cc3ccccn3)cc2nc2n1CCC(F)CC2` (stereo not drawn) [Example 6.46, 8-fluoro-3-(pyridin-2-ylethynyl)-7,8,9,10-tetrahydroazepino[2,1-b]quinazolin-12(6H)-one], the EC50 was less than 10 nM.

Take `CC1CCc2nc3cc(C#Cc4cccc(C#N)n4)ccc3c(=O)n2CC1` (stereo not drawn) [Example 6.47, 6-((8-methyl-12-oxo-6,7,8,9,10,12-hexahydroazepino[2,1-b]quinazolin-3-yl)ethynyl)picolinonitrile]: the EC50 was 30 to 100 nM.

Consider `CC1(F)CCc2nc3cc(C#Cc4ccccn4)ccc3c(=O)n2CC1` (stereo not drawn) [Example 6.48, 8-fluoro-8-methyl-3-(pyridin-2-ylethynyl)-7,8,9,10-tetrahydroazepino[2,1-b]quinazolin-12(6H)-one], for which the EC50 was less than 10 nM.

For `CC1(O)CCc2nc3cc(C#Cc4ccccn4)ccc3c(=O)n2CC1` (stereo not drawn) [Example 6.49, 8-hydroxy-8-methyl-3-(pyridin-2-ylethynyl)-7,8,9,10-tetrahydroazepino[2,1-b]quinazolin-12(6H)-one], the EC50 was in the range of 100 to 300 nM.

Turning to `COC1(C)CCc2nc3cc(C#Cc4ccccn4)ccc3c(=O)n2CC1` (stereo not drawn) [Example 6.50, 8-methoxy-8-methyl-3-(pyridin-2-ylethynyl)-7,8,9,10-tetrahydroazepino[2,1-b]quinazolin-12(6H)-one], the EC50 lay in the range of 30 to 100 nM.

`O=c1c2ccc(C#Cc3ccccn3)cc2nc2n1CCC1(CC2)CC1` [Example 6.51, 3-(pyridin-2-ylethynyl)-9,10-dihydro-6H-spiro[azepino[2,1-b]quinazoline-8,1′-cyclopropan]-12(7H)-one]: the concentration for a half-maximal effect (EC50) is less than 10 nM.

For `O=c1c2ccc(C#Cc3ccccc3)cc2nc2n1CCC1(CC2)OCCO1` [Example 7.1], the EC50 was 10 to 30 nM.

On to `O=c1c2ccc(C#Cc3ccccc3F)cc2nc2n1CCC1(CC2)OCCO1` [Example 7.2], for which the EC50 is 30 to 100 nM.

`O=c1c2ccc(C#Cc3ccc(F)cc3)cc2nc2n1CCC1(CC2)OCCO1` [Example 7.3]: the concentration giving a half-maximal response (EC50) lay in the range of 30 to 100 nM.

With `O=c1c2ccc(C#Cc3ccc(F)c(F)c3)cc2nc2n1CCC1(CC2)OCCO1` [Example 7.5], the 50% effective concentration (EC50) was in the range of 100 to 300 nM.

`Cc1cc(F)ccc1C#Cc1ccc2c(=O)n3c(nc2c1)CCC1(CC3)OCCO1` [Example 7.6]: the EC50 fell in the range of 300 to 1000 nM.

As to `O=c1c2ccc(C#Cc3cccc(Cl)c3)cc2nc2n1CCC1(CC2)OCCO1` [Example 7.8], the concentration giving a half-maximal response (EC50) lay within 300 to 1000 nM.

In the case of `O=c1c2ccc(C#Cc3ccc(Cl)cc3)cc2nc2n1CCC1(CC2)OCCO1` [Example 7.09], the EC50 is 300 to 1000 nM.

Regarding `O=c1c2ccc(C#Cc3ccccn3)cc2nc2n1CCC1(CC2)OCCO1` [Example 7.10], the EC50 lay within 30 to 100 nM.

Consider `O=c1c2ccc(C#Cc3cccnc3)cc2nc2n1CCC1(CC2)OCCO1` [Example 7.11], for which the 50% effective concentration (EC50) was 300 to 1000 nM.

Regarding `O=c1c2ccc(C#Cc3ccncc3)cc2nc2n1CCC1(CC2)OCCO1` [Example 7.12], the EC50 was 10 to 30 nM.

Regarding `O=c1c2ccc(C#Cc3ccc(F)cn3)cc2nc2n1CCC1(CC2)OCCO1` [Example 7.13], the EC50 was in the range of 30 to 100 nM.

As to `O=c1c2ccc(C#Cc3cccnc3F)cc2nc2n1CCC1(CC2)OCCO1` [Example 7.14], the EC50 fell in the range of 100 to 300 nM.

With `O=c1c2ccc(C#Cc3ccc(F)nc3)cc2nc2n1CCC1(CC2)OCCO1` [Example 7.15], the EC50 was 30 to 100 nM.

For `O=c1c2ccc(C#Cc3ccncc3F)cc2nc2n1CCC1(CC2)OCCO1` [Example 7.16], the EC50 lay within 100 to 300 nM.

With `O=c1c2ccc(C#Cc3ccnc(F)c3)cc2nc2n1CCC1(CC2)OCCO1` [Example 7.17], the EC50 is 30 to 100 nM.

`N#Cc1cc(C#Cc2ccc3c(=O)n4c(nc3c2)CCC2(CC4)OCCO2)ccc1F` [Example 7.19]: the EC50 was 300 to 1000 nM.

With `Cc1cccc(C#Cc2ccc3c(=O)n4c(nc3c2)CCC2(CC4)OCCO2)c1` [Example 7.31], the EC50 is 100 to 300 nM.

As to `Cc1ccc(C#Cc2ccc3c(=O)n4c(nc3c2)CCC2(CC4)OCCO2)cc1` [Example 7.32], the EC50 was 300 to 1000 nM.

In the case of `N#Cc1cccc(C#Cc2ccc3c(=O)n4c(nc3c2)CCC2(CC4)OCCO2)c1` [Example 7.38], the EC50 fell in the range of 30 to 100 nM.

Regarding `N#Cc1ccc(C#Cc2ccc3c(=O)n4c(nc3c2)CCC2(CC4)OCCO2)cc1` [Example 7.39], the EC50 lay within 300 to 1000 nM.

As to `O=c1c2ccc(C#Cc3ccccc3C(F)(F)F)cc2nc2n1CCC1(CC2)OCCO1` [Example 7.40], the EC50 lay within 100 to 300 nM.

With `Cc1cccc(C#Cc2ccc3c(=O)n4c(nc3c2)CCC2(CC4)OCCO2)n1` [Example 7.46], the EC50 was 100 to 300 nM.

For the compound `Cc1cc(C#Cc2ccc3c(=O)n4c(nc3c2)CCC2(CC4)OCCO2)ccn1` [Example 7.47], the EC50 is 10 to 30 nM.

As to `Cc1ccnc(C#Cc2ccc3c(=O)n4c(nc3c2)CCC2(CC4)OCCO2)c1` [Example 7.48], the half-maximal effective concentration (EC50) was 30 to 100 nM.

On to `O=c1c2ccc(C#CC3=CCCC3)cc2nc2n1CCC1(CC2)OCCO1` [Example 7.51], for which the EC50 fell in the range of 100 to 300 nM.

In the case of `O=c1c2ccc(C#CC3CCCC3)cc2nc2n1CCC1(CC2)OCCO1` [Example 7.52], the EC50 fell in the range of 300 to 1000 nM.

Take `O=c1c2ccc(C#CC3=CCCCC3)cc2nc2n1CCC1(CC2)OCCO1` [Example 7.53]: the concentration for a half-maximal effect (EC50) is 300 to 1000 nM.

Take `O=c1c2ccc(C#CC3CCCCC3)cc2nc2n1CCC1(CC2)OCCO1` [Example 7.54]: the EC50 is 300 to 1000 nM.

On to `O=c1c2ccc(C#Cc3ccco3)cc2nc2n1CCC1(CC2)OCCO1` [Example 7.55], for which the EC50 was 30 to 100 nM.

With `O=c1c2ccc(C#Cc3ccoc3)cc2nc2n1CCC1(CC2)OCCO1` [Example 7.56], the EC50 was in the range of 30 to 100 nM.

On to `O=c1c2ccc(C#Cc3cccs3)cc2nc2n1CCC1(CC2)OCCO1` [Example 7.57], for which the EC50 was in the range of 30 to 100 nM.

Turning to `Cc1ccsc1C#Cc1ccc2c(=O)n3c(nc2c1)CCC1(CC3)OCCO1` [Example 7.58], the concentration giving a half-maximal response (EC50) is 300 to 1000 nM.

For `O=c1c2ccc(C#Cc3ccsc3)cc2nc2n1CCC1(CC2)OCCO1` [Example 7.59], the EC50 is 10 to 30 nM.

Take `O=c1c2ccc(C#Cc3nccs3)cc2nc2n1CCC1(CC2)OCCO1` [Example 7.60]: the EC50 is 300 to 1000 nM.

On to `Cc1csc(C#Cc2ccc3c(=O)n4c(nc3c2)CCC2(CC4)OCCO2)n1` [Example 7.61], for which the EC50 was in the range of 30 to 100 nM.

On to `O=c1c2ccc(C#Cc3cscn3)cc2nc2n1CCC1(CC2)OCCO1` [Example 7.62], for which the EC50 is 300 to 1000 nM.

Turning to `Cc1scnc1C#Cc1ccc2c(=O)n3c(nc2c1)CCC1(CC3)OCCO1` [Example 7.63], the EC50 was in the range of 300 to 1000 nM.

Regarding `Cc1noc(C)c1C#Cc1ccc2c(=O)n3c(nc2c1)CCC1(CC3)OCCO1` [Example 7.67], the EC50 is 10 to 30 nM.

`Cn1cc(C#Cc2ccc3c(=O)n4c(nc3c2)CCC2(CC4)OCCO2)cn1` [Example 7.69]: the EC50 lay in the range of 100 to 300 nM.

As to `CN1CCc2nc3cc(C#Cc4ccc(F)cc4)ccc3c(=O)n2CC1` [Example 8.1, 8-((4-fluorophenyl)ethynyl)-3-methyl-2,3,4,5-tetrahydro-[1,4]diazepino[7,1-b]quinazolin-11(1H)-one], the EC50 was in the range of 100 to 300 nM.

As to `CCN1CCc2nc3cc(C#Cc4ccc(F)cc4)ccc3c(=O)n2CC1` [Example 8.2, 3-ethyl-8-((4-fluorophenyl)ethynyl)-2,3,4,5-tetrahydro-[1,4]diazepino[7,1-b]quinazolin-11(1H)-one], the EC50 lay within 100 to 300 nM.

Consider `CC(C)N1CCc2nc3cc(C#Cc4ccc(F)cc4)ccc3c(=O)n2CC1` [Example 8.3, 8-((4-fluorophenyl)ethynyl)-3-isopropyl-2,3,4,5-tetrahydro-[1,4]diazepino[7,1-b]quinazolin-11(1H)-one], for which the 50% effective concentration (EC50) lay within 100 to 300 nM.

As to `O=c1c2ccc(C#Cc3cccc(F)c3)cc2nc2n1CCNCC2` [Example 8.6, 8-((3-fluorophenyl)ethynyl)-2,3,4,5-tetrahydro-[1,4]diazepino[7,1-b]quinazolin-11(1H)-one], the EC50 fell in the range of 100 to 300 nM.

`CN1CCc2nc3cc(C#Cc4cccc(F)c4)ccc3c(=O)n2CC1` [Example 8.7, 8-((3-fluorophenyl)ethynyl)-3-methyl-2,3,4,5-tetrahydro-[1,4]diazepino[7,1-b]quinazolin-11(1H)-one]: the EC50 fell in the range of 30 to 100 nM.

Consider `CCCN1CCc2nc3cc(C#Cc4cccc(F)c4)ccc3c(=O)n2CC1` [Example 8.8, 8-((3-fluorophenyl)ethynyl)-3-propyl-2,3,4,5-tetrahydro-[1,4]diazepino[7,1-b]quinazolin-11(1H)-one], for which the EC50 was in the range of 100 to 300 nM.

Still in this test, the particulars now being: mGluR5 PAM EC50, HEK293/GLAST cells expressing recombinant human mGluR5; FLIPR calcium signal; glutamate added at its EC20.
For `CC1(C)CCc2nc3cc(C#Cc4ccccn4)ccc3c(=O)n2CC1` [Example 6.40, 8,8-dimethyl-3-(pyridin-2-ylethynyl)-7,8,9,10-tetrahydroazepino[2,1-b]quinazolin-12(6H)-one], the EC50 is less than 10 nM.
